In the assay the test system is Plasmodium berghei. The assay is described as follows: Luciferase/luciferin-expressing antifolate-resistant parasites were used to infect a culture of HepG2 cells that were pre-incubated with compounds. Infected hepatocytes emit light due to the luciferase reaction. Assay results are presented as the percent inhibition of light emission compared to control. […]. Format: functional. The settings on record: sporozoite; for IC90: read-out: LUCIFERASE INFECTION ASSAY - IC90.

Where [1] appears, read: read-out: LUCIFERASE INFECTION ASSAY - IC50.

Structures are written as SMILES. pIC50: −log10 of the molar value.

For `CCOc1cccc(-c2cn3c(-c4ccc(C(=O)NC5CC5)cc4)cnc3cn2)c1`, the 90% effect concentration (IC90) (as a rule, the point of the concentration-response curve where the effect stands at 90%) is 8.02 µM. Also, the pIC50 (as a rule, the negative decadic logarithm of the IC50, by convention in mol/L) (HEPG2TOX_HILL_SLOPE 1.3, HEPG2TOX_R_SQUARED 0.854, PBLUC_HILL_SLOPE 1.74, PBLUC_R_SQUARED 0.806, read-out: LUCIFERASE INFECTION ASSAY - IC50) was 5.64.
For the molecule `C=C1c2ccccc2N=C(SC(C)C(=O)Nc2ccccc2)N1C` (centres undefined), the IC90 amounted to 6.88 µM. Moreover, the pIC50 (HEPG2TOX_HILL_SLOPE 0.246, HEPG2TOX_R_SQUARED 0.527, PBLUC_HILL_SLOPE 4.19, PBLUC_R_SQUARED 0.571, read-out: LUCIFERASE INFECTION ASSAY - IC50) was 5.39.
`COc1ccc2cc(CN(C)C(C)C(=O)NCc3ccc(F)cc3)ccc2c1` (centres undefined): the IC90 is above 10 µM. Where the note is “HEPG2TOX_HILL_SLOPE 14.9, HEPG2TOX_R_SQUARED 0.671, read-out: LUCIFERASE INFECTION ASSAY - IC50”, the pIC50 is below 5.00.
In the case of `O=C1C=CC(=O)N1c1ccc(Cl)cc1Cl`, the IC90 is above 13.6 µM. Besides, the pIC50 (FFLUC_HILL_SLOPE 227, FFLUC_R_SQUARED 0.205, read-out: LUCIFERASE INFECTION ASSAY - IC50) is below 4.87.
`CC(C)CN1C(=O)N(C)C(=O)C12CCN(Cc1cc3ccccc3s1)CC2`: the IC90 was above 8.56 µM. Further, the pIC50 (PBLUC_HILL_SLOPE 3.77, PBLUC_R_SQUARED 0.71, read-out: LUCIFERASE INFECTION ASSAY - IC50) was 5.17.
Turning to `Oc1c(C(c2ccccc2Cl)N2CCCC2)ccc2cccnc12` (centres undefined), the 90% effect concentration (IC90) is 4.97 µM. For the same molecule, the pIC50 (HEPG2TOX_HILL_SLOPE 12.7, HEPG2TOX_R_SQUARED 0.0314, PBLUC_HILL_SLOPE 8.39, PBLUC_R_SQUARED 0.486, read-out: LUCIFERASE INFECTION ASSAY - IC50) was 5.42.
As to `CCc1nc(SCC(=O)Nc2nsc(-c3ccc(C(C)(C)C)cc3)n2)c2c3c(sc2n1)CCC3`, the IC90 is above 10 µM. In addition, the pIC50 (FFLUC_HILL_SLOPE 7.48, FFLUC_R_SQUARED 0.446, read-out: LUCIFERASE INFECTION ASSAY - IC50) was below 5.00.
For `Cc1nc2n(C)c3ccccc3[n+]2c(C)c1C`, the IC90 was above 10 µM. Moreover, where the note is “HEPG2TOX_HILL_SLOPE 3.01, HEPG2TOX_R_SQUARED 0.767, PBLUC_HILL_SLOPE 4.79, PBLUC_R_SQUARED 0.113, read-out: LUCIFERASE INFECTION ASSAY - IC50”, the pIC50 was 5.17.
Take `O=C(COC(=O)c1cc(-c2ccccc2)c(N2CCOCC2)s1)NCc1cccs1`: the IC90 is 7.35 µM. Moreover, the pIC50 (HEPG2TOX_HILL_SLOPE 2.63, HEPG2TOX_R_SQUARED 0.904, PBLUC_HILL_SLOPE 1.69, PBLUC_R_SQUARED 0.47, read-out: LUCIFERASE INFECTION ASSAY - IC50) was 5.70.
For `Cc1cnc(NC(=O)c2ccc(Cl)c(S(=O)(=O)N(Cc3ccccc3)c3ccccc3Cl)c2)s1`, the IC90 was above 10 µM. The pIC50 under setting [1] was below 5.00.
Turning to `Cc1cc2oc(=O)cc(Cn3cnc4sc(C)c(-c5ccccc5)c4c3=O)c2cc1Cl`, the concentration for an effect of 90% (IC90) is above 10 µM. For the same molecule, for the setting “FFLUC_HILL_SLOPE 8.53, FFLUC_R_SQUARED 0.709, PBLUC_HILL_SLOPE 1.77, PBLUC_R_SQUARED 0.508, read-out: LUCIFERASE INFECTION ASSAY - IC50”, the pIC50 was 5.32.
In the case of `CSc1sc(C(=O)N2CCOCC2)c2c1S(=O)(=O)N(C)c1ccccc1-2`, the IC90 was above 8.04 µM. Also, the pIC50 under setting [1] is below 5.09.
With `CCOC(=O)c1ccc(-n2c(C)cc(/C=C(\C#N)c3nc4ccccc4[nH]3)c2C)cc1`, the concentration for an effect of 90% (IC90) is above 10 µM. For the same molecule, under setting [1], the pIC50 is below 5.00.
Consider `CC1Cc2ccccc2N1C(=O)c1cn(-c2ccccc2)nc1-c1ccc(F)cc1` (centres undefined), for which the 90% effect concentration (IC90) is 9.94 µM. Also, the pIC50 (HEPG2TOX_HILL_SLOPE 8.75, HEPG2TOX_R_SQUARED 0.907, PBLUC_HILL_SLOPE 3.93, PBLUC_R_SQUARED 0.478, read-out: LUCIFERASE INFECTION ASSAY - IC50) is 5.25.
With `c1nc(NCc2ccc(CN3CCOCC3)cc2)c2sccc2n1`, the IC90 is above 10 µM. Moreover, the pIC50 (HEPG2TOX_HILL_SLOPE 1.44, HEPG2TOX_R_SQUARED 0.736, PBLUC_HILL_SLOPE 1.22, PBLUC_R_SQUARED 0.605, read-out: LUCIFERASE INFECTION ASSAY - IC50) is 5.54.
Consider `CCOC(=O)c1ccccc1NC(=O)C1CCN(c2ncnc3sc(C)c(C)c23)CC1`, for which the IC90 was above 10 µM. In addition, for the setting “PBLUC_HILL_SLOPE 0.744, PBLUC_R_SQUARED 0.552, read-out: LUCIFERASE INFECTION ASSAY - IC50”, the pIC50 is 5.24.
As for `CCCCc1noc(C(C)Sc2nc(C(C)(C)C)nc3c2c(=O)n(C)c(=O)n3C)n1` (centres undefined), the IC90 was above 10 µM. Further, the pIC50 (HEPG2TOX_HILL_SLOPE 1.13, HEPG2TOX_R_SQUARED 0.608, PBLUC_HILL_SLOPE 1.15, PBLUC_R_SQUARED 0.641, read-out: LUCIFERASE INFECTION ASSAY - IC50) is 5.41.
Take `COc1ccccc1-c1noc(CSc2nc3ccccc3c(=O)n2-c2ccc(C)cc2)n1`: the IC90 is above 10 µM. In addition, the negative-log IC50 (pIC50) under setting [1] was below 5.00.
Consider `FC(F)(F)Oc1ccc(Nc2cc3[nH]c(-c4ccccn4)cc3cn2)cc1`, for which the concentration for an effect of 90% (IC90) worked out at 5.04 µM. For the same molecule, the negative logarithm of the IC50 (pIC50) (HEPG2TOX_HILL_SLOPE 10.1, HEPG2TOX_R_SQUARED 0.985, PBLUC_HILL_SLOPE 7.97, PBLUC_R_SQUARED 0.35, read-out: LUCIFERASE INFECTION ASSAY - IC50) was 5.42.
On to `CNC(=O)c1sc2scc(C)c2c1C`, for which the IC90 was above 14.6 µM. Also, the pIC50 under setting [1] was below 4.84.
For `COc1cccc(-c2ccc3ncc(-c4ccc5c(c4)OCO5)n3n2)c1`, the 90% effect concentration (IC90) came out at 9 µM. For the same molecule, the pIC50 (HEPG2TOX_HILL_SLOPE 2.64, HEPG2TOX_R_SQUARED 0.763, PBLUC_HILL_SLOPE 3.7, PBLUC_R_SQUARED 0.498, read-out: LUCIFERASE INFECTION ASSAY - IC50) is 5.30.
In the case of `O=C(Nc1nc2ccccn2c1C(=O)NC1CCCC1)c1cc(F)ccc1F`, the IC90 came out at 6.63 µM. Besides, under “HEPG2TOX_HILL_SLOPE 2.22, HEPG2TOX_R_SQUARED 0.565, PBLUC_HILL_SLOPE 4.18, PBLUC_R_SQUARED 0.45, read-out: LUCIFERASE INFECTION ASSAY - IC50”, the pIC50 is 5.41.
As for `CC(C)NS(=O)(=O)c1ccc(NC(=S)NC(=O)C(c2ccccc2)c2ccccc2)cc1`, the IC90 is above 10 µM. Besides, the pIC50 (FFLUC_HILL_SLOPE 1.86, FFLUC_R_SQUARED 0.596, HEPG2TOX_HILL_SLOPE 15.1, HEPG2TOX_R_SQUARED 0.768, PBLUC_HILL_SLOPE 9.02, PBLUC_R_SQUARED 0.275, read-out: LUCIFERASE INFECTION ASSAY - IC50) is 5.08.
Turning to `Cc1cc(C)cc(NC(=O)CNCCCn2ccc3ccccc32)c1`, the IC90 was above 10 µM. The pIC50 under setting [1] was below 5.00.
Regarding `CN(CC(=O)Nc1ccccc1N1CCCCCC1)S(=O)(=O)c1ccccc1C#N`, the concentration for an effect of 90% (IC90) was above 10 µM. Also, under “HEPG2TOX_HILL_SLOPE 3.04, HEPG2TOX_R_SQUARED 0.862, PBLUC_HILL_SLOPE 1.2, PBLUC_R_SQUARED 0.365, read-out: LUCIFERASE INFECTION ASSAY - IC50”, the negative logarithm of the IC50 (pIC50) was 5.01.
As to `CC(CN1CCC2(CC1)C(=O)N(Cc1ccccn1)C(=O)N2Cc1ccccc1)c1ccccc1` (centres undefined), the IC90 was above 7.04 µM. Moreover, the pIC50 (PBLUC_HILL_SLOPE 2.23, PBLUC_R_SQUARED 0.302, read-out: LUCIFERASE INFECTION ASSAY - IC50) was below 5.15.
Consider `O=C(Nc1ccc(N2CCCC2)cn1)c1cccc(Cl)c1`, for which the IC90 is 0.145 µM. For the setting “FFLUC_HILL_SLOPE 1.87, FFLUC_R_SQUARED 0.554, HEPG2TOX_HILL_SLOPE 1.22, HEPG2TOX_R_SQUARED 0.956, PBLUC_HILL_SLOPE 1.63, PBLUC_R_SQUARED 0.915, read-out: LUCIFERASE INFECTION ASSAY - IC50”, the pIC50 was 7.42.
With `CCc1cccc(CC)c1NC(=O)/C(C#N)=C/c1ccccc1C(F)(F)F`, the IC90 stood at 4.5 µM. Besides, the pIC50 under setting [1] is 5.43.
`O=C1C=C(c2ccccc2)C(=O)N1Nc1ccccc1`: the IC90 was above 12.5 µM. Besides, under setting [1], the pIC50 was below 4.90.
Regarding `C=CCn1c(C)cc(C(=O)CNC(=O)Nc2ccccc2)c1C`, the IC90 is above 10 µM. Besides, where the note is “HEPG2TOX_HILL_SLOPE 12.5, HEPG2TOX_R_SQUARED 0.766, PBLUC_HILL_SLOPE 0.462, PBLUC_R_SQUARED 0.648, read-out: LUCIFERASE INFECTION ASSAY - IC50”, the pIC50 is 6.31.
`Cc1onc(-c2c(Cl)cccc2Cl)c1NC(=O)Nc1cscc1S(=O)(=O)C(C)C`: the IC90 was above 6.96 µM. Under “FFLUC_HILL_SLOPE 2.28, FFLUC_R_SQUARED 0.234, read-out: LUCIFERASE INFECTION ASSAY - IC50”, the negative logarithm of the IC50 (pIC50) was below 5.16.
For the molecule `O=C(Nc1ccc[n+](Cc2ccccc2)c1)c1ccccc1-c1ccc(C(F)(F)F)cc1`, the 90% effect concentration (IC90) is above 10 µM. Moreover, the pIC50 (PBLUC_HILL_SLOPE 3.37, PBLUC_R_SQUARED 0.68, read-out: LUCIFERASE INFECTION ASSAY - IC50) was 5.24.
Take `Cn1nnnc1Sc1ncnc2cc(-c3ccc(F)cc3)sc12`: the IC90 is above 10 µM. The pIC50 under setting [1] is below 5.00.
On to `Cc1ccccc1-c1ccc(CN2CCc3c(c(C(=O)NCc4ccccc4)nn3CCO)C2)cc1`, for which the IC90 was 2.98 µM. Further, the negative-log IC50 (pIC50) (PBLUC_HILL_SLOPE 9.2, PBLUC_R_SQUARED 0.549, read-out: LUCIFERASE INFECTION ASSAY - IC50) is 5.63.
Take `O=c1cc(CN2CCCCCC2)nc2sccn12`: the IC90 is 1.39 µM. Moreover, under setting [1], the negative-log IC50 (pIC50) was 5.95.
The corresponding values for `Cn1c(Nc2cccc(C(F)(F)F)c2)nc2cnc(-c3ccoc3)cc21` are above 10 µM and below 5.00.
As to `Cc1ccccc1OCCOC(=O)Nc1ccccc1`, the IC90 is above 12.2 µM. Also, the pIC50 under setting [1] was below 4.91.
